# Like-named read-outs stand apart in the source and are kept apart here.
# Legend:
# HIV-2 strains = test: HIV-2 strains, reverse transcriptase activity in MT-2 cells; type: cell-based
# Description: Virus yields were measured in dose-response experiments by either luciferase activity in human T-cells (CEM-NKR-CCR5-Luc), extracellular reverse transcriptase activity in MT-2 cells (T-tropic viruses), or extracellular p24 antigen in PM1 cells (M-tropic viruses).
# Multiple-cycle assays using recombinant viruses or clinical isolates were used to assess MI antiviral activity as described previously ([10]). pNLRepRlucP373S (the P373S change is in the Gag gene and converts an outlier polymorphism in the NL4-3 gene to the prevalent amino acid in the population) plasmids containing SDMs in Gag or gag/pr regions from clinical isolates were transfected into HEK 293T cells, and the supernatant containing recombinant virus was harvested after 4 to 5 days. Virus was used to infect MT-2 cells in the presence of a 3-fold serially diluted compound at a final dimethyl sulfoxide (DMSO) concentration of 1%. The inocula of the reporter viruses were determined based on the luciferase activity detected on day 4 postinfection. The MOI (ratio of infectious virions to target cells) of reporter-free laboratory strains and clinical isolates was 0.005, as derived from a tissue culture infectious dose study. Clinical isolates or reporter-free viruses were examined in the reporter CEM-NKR-CCR5-Luc cells or PBMCs at MOIs ranging from 0.005 to 0.01. Each infection started with a drug-free preincubation of the cell-virus mixtures, performed at 37°C and 5% CO2 for either 1 h at 2 times the final cell density (reporter viruses) or 1 h (reporter-free laboratory strains) or 3 h (clinical isolates) using cell pellets in 0.5 mL of medium. […] Virus growth was determined on days 4 to 5 postinfection for reporter variants or days 5 to 11 for the other viruses. The reporter viruses were detected by a luciferase assay according to manufacturer protocols (Brite-Glo luciferase kit [Promega] for CEM-NKR-CCR5-Luc cells and Dual-Luciferase Reporter 1000 assay system [Promega] for the other cells), and luminescence was detected on a Wallac Trilux. The growth of clinical isolates in PBMCs was quantitated by reverse transcriptase activity in a 96-well scintillation proximity assay (SPA). […] Luminescence was detected on a Wallac Trilux programmed for tritium counting with SPA beads in opaque plates. The growth of the reporter-free laboratory M-tropic strains and clinical isolates was monitored by a p24 enzyme-linked immunosorbent assay (ELISA; PerkinElmer Life Sciences, Waltham, MA) performed on culture supernatants.
# Maximal percent inhibition values were calculated as MPI = 100 – (mean signals at the 2 highest concentrations of compound/mean signal of 2 no-drug control wells) × 100.
# [1] = system: HIV-1 viruses containing Gag region SDMs; test: Single-cycle infection assay with Gag SDM viruses; type: cell-based
# Description: Single-cycle infection assays were performed as described previously ([10]). Half-maximal effective concentration values were calculated as the compound concentration that inhibits 50% of the maximal signal (no-drug control), correcting for background. Background was determined as the residual signal observed upon inhibition at the highest concentration of a control protease inhibitor, nelfinavir (3 μM). Half-maximal fold change effective concentration versus WT values were calculated by dividing the EC50 of the recombinant virus by the EC50 of WT RepRlucNL4-3 virus run in parallel.
# [2] = Human immunodeficiency virus 2, MT2, HIV-2 287
# [3] = Human immunodeficiency virus 2, MT2, HIV-2 ROD, second value in cell
# [4] = Human immunodeficiency virus 1, read-out: Mean ± SD EC50, A364V
# [5] = Human immunodeficiency virus 1, read-out: Mean ± SD EC50, A366V
# [6] = Human immunodeficiency virus 1, read-out: Mean ± SD EC50, A366V/V370M
# [7] = Human immunodeficiency virus 1, read-out: Mean ± SD EC50, H358Y/ΔT371
# [8] = Human immunodeficiency virus 1, read-out: Mean ± SD EC50, I333V/V362I
# [9] = Human immunodeficiency virus 1, read-out: Mean ± SD EC50, I333V/V370
# [10] = Human immunodeficiency virus 1, read-out: Mean ± SD EC50, I333V/V370A
# [11] = Human immunodeficiency virus 1, read-out: Mean ± SD EC50, M367V
# [12] = Human immunodeficiency virus 1, read-out: Mean ± SD EC50, R361K/V362I/L363M
# [13] = Human immunodeficiency virus 1, read-out: Mean ± SD EC50, T33N/V370A
# [14] = Human immunodeficiency virus 1, read-out: Mean ± SD EC50, T332N/V370A
# [15] = Human immunodeficiency virus 1, read-out: Mean ± SD EC50, T332S/V362I/prR41G
# [16] = Human immunodeficiency virus 1, read-out: Mean ± SD EC50, V362I
# [17] = Human immunodeficiency virus 1, read-out: Mean ± SD EC50, V362I/A366V
# [18] = Human immunodeficiency virus 1, read-out: Mean ± SD EC50, V362I/A366V/V370M
# [19] = Human immunodeficiency virus 1, read-out: Mean ± SD EC50, V362I/H219Q
# [20] = Human immunodeficiency virus 1, read-out: Mean ± SD EC50, V362I/H219Q/T332S
# [21] = Human immunodeficiency virus 1, read-out: Mean ± SD EC50, V362I/V370A
# [22] = Human immunodeficiency virus 1, read-out: Mean ± SD EC50, V362I/V370M
# [23] = Human immunodeficiency virus 1, read-out: Mean ± SD EC50, V370A
# [24] = Human immunodeficiency virus 1, read-out: Mean ± SD EC50, V370M
# [25] = Human immunodeficiency virus 1, read-out: Mean ± SD EC50, Wild type
# [26] = Human immunodeficiency virus 1, read-out: Mean ± SD EC50, ΔV370
smiles,measurement,setting,value
C=C(C)[C@@H]1CC[C@]2(NCCN3CCS(=O)(=O)CC3)CC[C@]3(C)[C@H](CC[C@@H]4[C@@]5(C)CC=C(C6=CC[C@@](CF)(C(=O)O)CC6)C(C)(C)[C@@H]5CC[C@]43C)[C@@H]12 [GSK’254],EC50,HIV-2 strains; [2],> 1.39 µM
same,EC50,HIV-2 strains; [3],0.0025 µM
same,MPI,[1]; A364V,45%
same,MPI,[1]; A366V,−7.6%
same,MPI,[1]; A366V/V370M,26%
same,MPI,[1]; H358Y/ΔT371,67%
same,EC50,"[1]; Human immunodeficiency virus 1, V362I/V370A",0.004 µM
same,EC50,[1]; [4],> 3 µM
same,EC50,[1]; [5],> 3 µM
same,EC50,[1]; [6],> 3 µM
same,EC50,[1]; [7],0.035 ± 0.002 µM
same,EC50,[1]; [8],0.039 ± 0.005 µM
same,EC50,[1]; [9],0.011 ± 0.001 µM
same,EC50,[1]; [10],0.011 ± 0.001 µM
same,EC50,[1]; [11],0.015 ± 0.01 µM
same,EC50,[1]; [12],0.014 ± 0.002 µM
same,EC50,[1]; [13],0.003 µM
same,EC50,[1]; [14],0.004 ± 0.001 µM
same,EC50,[1]; [15],0.013 ± 0.009 µM
same,EC50,[1]; [16],0.003 ± 0.001 µM
same,EC50,[1]; [17],> 3 µM
same,EC50,[1]; [18],> 3 µM
same,EC50,[1]; [19],0.007 ± 0.002 µM
same,EC50,[1]; [20],0.008 ± 0.003 µM
same,EC50,[1]; [21],0.004 ± 0.001 µM
same,EC50,[1]; [22],0.004 ± 0.002 µM
same,EC50,[1]; [23],0.002 ± 0.001 µM
same,EC50,[1]; [24],0.002 ± 0.001 µM
same,EC50,[1]; [25],0.003 ± 0.002 µM
same,EC50,[1]; [26],0.008 µM
same,MPI,[1]; I333V/V362I,65%
same,MPI,[1]; I333V/V370,86%
same,MPI,[1]; I333V/V370A,86%
same,MPI,[1]; M367V,89%
same,MPI,[1]; R361K/V362I/L363M,89%
same,MPI,[1]; T33N/V370A,94%
same,MPI,[1]; T332N/V370A,94%
same,MPI,[1]; T332S/V362I/prR41G,88%
same,MPI,[1]; V362I,89%
same,MPI,[1]; V362I/A366V,−96%
same,MPI,[1]; V362I/A366V/V370M,1%
same,MPI,[1]; V362I/H219Q,91%
same,MPI,[1]; V362I/H219Q/T332S,91%
same,MPI,[1]; V362I/V370A,91%
same,MPI,[1]; V362I/V370M,90%
same,MPI,[1]; V370A,97%
same,MPI,[1]; V370M,93%
same,MPI,[1]; Wild type,98%
same,MPI,[1]; ΔV370,96%
"C=C(C)[C@@H]1CC[C@]2(NCCN3CCS(=O)(=O)CC3)CC[C@]3(C)[C@H](CC[C@@H]4[C@@]5(C)CC=C(c6ccc(C(=O)O)cc6)C(C)(C)[C@@H]5CC[C@]43C)[C@@H]12 [GSK’795, reference compound]",EC50,HIV-2 strains; [2],0.751 µM
same,EC50,HIV-2 strains; [3],0.017 µM
same,MPI,[1]; A364V,8%
same,MPI,[1]; A366V,3%
same,MPI,[1]; A366V/V370M,3%
same,MPI,[1]; H358Y/ΔT371,18%
same,EC50,[1]; [4],> 3 µM
same,EC50,[1]; [5],> 3 µM
same,EC50,[1]; [6],> 3 µM
same,EC50,[1]; [7],> 3 µM
same,EC50,[1]; [8],> 3 µM
same,EC50,[1]; [9],> 3 µM
same,EC50,[1]; [10],> 3 µM
same,EC50,[1]; [11],> 3 µM
same,EC50,[1]; [12],> 3 µM
same,EC50,[1]; [13],0.03 µM
same,EC50,[1]; [14],0.03 µM
same,EC50,[1]; [15],> 3 µM
same,EC50,[1]; [16],0.014 ± 0.006 µM
same,EC50,[1]; [17],> 3 µM
same,EC50,[1]; [18],> 3 µM
same,EC50,[1]; [19],0.066 µM
same,EC50,[1]; [20],0.71 µM
same,EC50,[1]; [21],> 3 µM
same,EC50,[1]; [22],> 3 µM
same,EC50,[1]; [23],0.006 µM
same,EC50,[1]; [24],0.013 ± 0.011 µM
same,EC50,[1]; [25],0.005 ± 0.003 µM
same,EC50,[1]; [26],0.11 µM
same,MPI,[1]; I333V/V362I,−30%
same,MPI,[1]; I333V/V370,−36%
same,MPI,[1]; I333V/V370A,10%
same,MPI,[1]; M367V,36%
same,MPI,[1]; R361K/V362I/L363M,36%
same,MPI,[1]; T33N/V370A,70%
same,MPI,[1]; T332N/V370A,70%
same,MPI,[1]; T332S/V362I/prR41G,−30%
same,MPI,[1]; V362I,68%
same,MPI,[1]; V362I/A366V,−109%
same,MPI,[1]; V362I/A366V/V370M,−62%
same,MPI,[1]; V362I/H219Q,60%
same,MPI,[1]; V362I/H219Q/T332S,52%
same,MPI,[1]; V362I/V370A,31%
same,MPI,[1]; V362I/V370M,51%
same,MPI,[1]; V370A,84%
same,MPI,[1]; V370M,78%
same,MPI,[1]; Wild type,94%
same,MPI,[1]; ΔV370,60%

# Source: paper PMC8765437, “GSK3640254 Is a Novel HIV-1 Maturation Inhibitor with an Optimized Virology Profile” (Antimicrobial Agents and Chemotherapy, 2022)
